According to ChEMBL document CHEMBL4507276 (2021):

Key:
[1] = tested on: Tyrosine-protein kinase ABL1 (Homo sapiens), P00519 [H396P]; conditions: Compound concentration 1000.0 nM
[2] = tested on: ALK tyrosine kinase receptor (Homo sapiens), Q9UM73 [C1156Y]; conditions: Compound concentration 1000.0 nM
[3] = target: Ankyrin repeat and protein kinase domain-containing protein 1 (Homo sapiens) (UniProt Q8NFD2); conditions: Compound concentration 1000.0 nM
[4] = target: Cyclin-dependent kinase 4 (Homo sapiens) (UniProt P11802); conditions: Compound concentration 1000.0 nM
Chain of Cyclin-dependent kinase 4 (Homo sapiens) (P11802 whole entry): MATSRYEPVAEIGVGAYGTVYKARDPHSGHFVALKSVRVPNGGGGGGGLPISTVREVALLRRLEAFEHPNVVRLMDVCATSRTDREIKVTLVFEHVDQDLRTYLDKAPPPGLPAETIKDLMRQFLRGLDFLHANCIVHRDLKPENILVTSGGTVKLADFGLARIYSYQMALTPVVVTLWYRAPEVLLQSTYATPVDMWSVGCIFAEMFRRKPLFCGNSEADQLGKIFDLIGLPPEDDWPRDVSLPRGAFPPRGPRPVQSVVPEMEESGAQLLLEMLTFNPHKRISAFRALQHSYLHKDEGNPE

[5] = target: Cyclin-dependent kinase-like 3 (Homo sapiens) (UniProt Q8IVW4); conditions: Compound concentration 1000.0 nM
[6] = target: T1, Serine/threonine-protein kinase DCLK2 (Homo sapiens) (UniProt Q8N568); conditions: Compound concentration 1000.0 nM
T1 sequence (whole entry): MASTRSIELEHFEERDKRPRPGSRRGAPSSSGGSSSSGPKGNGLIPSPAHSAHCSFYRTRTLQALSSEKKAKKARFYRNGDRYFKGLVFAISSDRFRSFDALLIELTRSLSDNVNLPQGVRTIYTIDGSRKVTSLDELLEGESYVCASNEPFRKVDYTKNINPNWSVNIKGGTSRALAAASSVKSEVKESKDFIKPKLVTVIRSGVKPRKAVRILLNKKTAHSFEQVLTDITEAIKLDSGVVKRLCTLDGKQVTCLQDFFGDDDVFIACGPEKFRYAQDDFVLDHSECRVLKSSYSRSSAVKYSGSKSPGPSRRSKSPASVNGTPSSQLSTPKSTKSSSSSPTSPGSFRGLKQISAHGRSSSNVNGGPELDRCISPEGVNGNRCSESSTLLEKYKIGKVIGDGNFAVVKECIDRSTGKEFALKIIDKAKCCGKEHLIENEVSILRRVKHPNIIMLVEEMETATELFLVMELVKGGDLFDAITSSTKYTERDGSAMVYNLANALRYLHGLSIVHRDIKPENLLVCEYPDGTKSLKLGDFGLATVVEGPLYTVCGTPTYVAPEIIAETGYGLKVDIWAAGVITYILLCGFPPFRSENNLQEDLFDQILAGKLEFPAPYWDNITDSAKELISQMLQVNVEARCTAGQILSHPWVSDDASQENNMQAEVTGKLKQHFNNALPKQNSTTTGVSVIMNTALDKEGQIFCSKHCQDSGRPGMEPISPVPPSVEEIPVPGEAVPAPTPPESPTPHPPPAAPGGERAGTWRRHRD

[7] = tested on: Epidermal growth factor receptor (Homo sapiens), P00533 [G719C]; conditions: Compound concentration 1000.0 nM
[8] = target: Ephrin type-A receptor 6 (Homo sapiens) (UniProt Q9UF33); conditions: Compound concentration 1000.0 nM
Chain of Ephrin type-A receptor 6 (Homo sapiens) (Q9UF33 whole entry): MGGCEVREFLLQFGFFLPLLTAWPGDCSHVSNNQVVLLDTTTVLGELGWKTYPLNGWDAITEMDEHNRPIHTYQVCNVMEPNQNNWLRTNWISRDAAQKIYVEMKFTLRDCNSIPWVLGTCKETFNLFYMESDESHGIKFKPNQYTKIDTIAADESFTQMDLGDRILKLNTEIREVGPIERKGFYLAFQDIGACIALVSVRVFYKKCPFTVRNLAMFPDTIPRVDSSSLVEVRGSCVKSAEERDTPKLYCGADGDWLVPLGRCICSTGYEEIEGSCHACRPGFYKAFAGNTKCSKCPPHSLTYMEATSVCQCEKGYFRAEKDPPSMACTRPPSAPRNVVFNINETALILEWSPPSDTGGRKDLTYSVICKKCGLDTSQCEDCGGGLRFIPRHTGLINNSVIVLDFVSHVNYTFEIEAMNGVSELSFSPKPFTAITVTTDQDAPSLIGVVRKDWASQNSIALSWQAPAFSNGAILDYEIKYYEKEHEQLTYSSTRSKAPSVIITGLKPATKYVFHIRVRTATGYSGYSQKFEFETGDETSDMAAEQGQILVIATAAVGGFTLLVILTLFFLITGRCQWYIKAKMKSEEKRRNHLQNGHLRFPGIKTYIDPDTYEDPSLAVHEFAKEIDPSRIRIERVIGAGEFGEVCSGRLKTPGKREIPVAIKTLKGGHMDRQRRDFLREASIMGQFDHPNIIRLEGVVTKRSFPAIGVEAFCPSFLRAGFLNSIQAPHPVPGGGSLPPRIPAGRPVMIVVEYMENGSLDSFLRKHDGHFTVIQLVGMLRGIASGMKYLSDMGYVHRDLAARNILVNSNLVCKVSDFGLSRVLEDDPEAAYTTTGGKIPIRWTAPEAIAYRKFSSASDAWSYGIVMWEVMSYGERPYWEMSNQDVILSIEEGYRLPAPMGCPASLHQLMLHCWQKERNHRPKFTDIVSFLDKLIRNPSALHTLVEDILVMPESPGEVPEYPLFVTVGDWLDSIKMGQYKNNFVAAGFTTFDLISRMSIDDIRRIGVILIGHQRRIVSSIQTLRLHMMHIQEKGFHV

[9] = target: Tyrosine-protein kinase Fes/Fps (Homo sapiens) (UniProt P07332); conditions: Compound concentration 1000.0 nM
Chain of Tyrosine-protein kinase Fes/Fps (Homo sapiens) (P07332 whole entry): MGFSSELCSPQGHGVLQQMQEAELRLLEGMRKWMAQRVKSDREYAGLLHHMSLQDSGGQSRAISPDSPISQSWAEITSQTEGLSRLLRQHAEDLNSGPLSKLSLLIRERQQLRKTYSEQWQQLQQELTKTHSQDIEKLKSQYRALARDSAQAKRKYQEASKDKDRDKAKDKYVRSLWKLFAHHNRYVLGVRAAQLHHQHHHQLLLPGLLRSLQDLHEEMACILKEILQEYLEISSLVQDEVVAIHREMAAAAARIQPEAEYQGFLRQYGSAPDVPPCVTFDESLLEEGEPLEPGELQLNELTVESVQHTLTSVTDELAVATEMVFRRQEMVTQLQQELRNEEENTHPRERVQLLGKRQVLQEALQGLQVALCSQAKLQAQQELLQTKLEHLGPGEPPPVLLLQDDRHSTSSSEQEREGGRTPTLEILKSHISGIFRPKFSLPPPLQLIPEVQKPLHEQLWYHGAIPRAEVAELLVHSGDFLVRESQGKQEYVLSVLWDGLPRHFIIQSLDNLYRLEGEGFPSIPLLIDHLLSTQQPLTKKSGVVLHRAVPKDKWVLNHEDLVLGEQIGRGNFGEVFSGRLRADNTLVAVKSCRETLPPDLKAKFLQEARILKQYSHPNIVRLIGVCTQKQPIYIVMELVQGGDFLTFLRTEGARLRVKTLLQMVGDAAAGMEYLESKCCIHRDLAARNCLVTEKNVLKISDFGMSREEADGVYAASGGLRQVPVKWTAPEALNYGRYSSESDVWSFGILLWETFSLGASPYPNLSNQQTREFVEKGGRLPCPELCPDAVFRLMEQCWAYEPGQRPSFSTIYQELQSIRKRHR

[10] = target: Fibroblast growth factor receptor 3 (Homo sapiens) (UniProt P22607); conditions: Compound concentration 1000.0 nM
[11] = target: Receptor-type tyrosine-protein kinase FLT3 (Homo sapiens) (UniProt P36888); conditions: Compound concentration 1000.0 nM
Chain of Receptor-type tyrosine-protein kinase FLT3 (Homo sapiens) (P36888 whole entry): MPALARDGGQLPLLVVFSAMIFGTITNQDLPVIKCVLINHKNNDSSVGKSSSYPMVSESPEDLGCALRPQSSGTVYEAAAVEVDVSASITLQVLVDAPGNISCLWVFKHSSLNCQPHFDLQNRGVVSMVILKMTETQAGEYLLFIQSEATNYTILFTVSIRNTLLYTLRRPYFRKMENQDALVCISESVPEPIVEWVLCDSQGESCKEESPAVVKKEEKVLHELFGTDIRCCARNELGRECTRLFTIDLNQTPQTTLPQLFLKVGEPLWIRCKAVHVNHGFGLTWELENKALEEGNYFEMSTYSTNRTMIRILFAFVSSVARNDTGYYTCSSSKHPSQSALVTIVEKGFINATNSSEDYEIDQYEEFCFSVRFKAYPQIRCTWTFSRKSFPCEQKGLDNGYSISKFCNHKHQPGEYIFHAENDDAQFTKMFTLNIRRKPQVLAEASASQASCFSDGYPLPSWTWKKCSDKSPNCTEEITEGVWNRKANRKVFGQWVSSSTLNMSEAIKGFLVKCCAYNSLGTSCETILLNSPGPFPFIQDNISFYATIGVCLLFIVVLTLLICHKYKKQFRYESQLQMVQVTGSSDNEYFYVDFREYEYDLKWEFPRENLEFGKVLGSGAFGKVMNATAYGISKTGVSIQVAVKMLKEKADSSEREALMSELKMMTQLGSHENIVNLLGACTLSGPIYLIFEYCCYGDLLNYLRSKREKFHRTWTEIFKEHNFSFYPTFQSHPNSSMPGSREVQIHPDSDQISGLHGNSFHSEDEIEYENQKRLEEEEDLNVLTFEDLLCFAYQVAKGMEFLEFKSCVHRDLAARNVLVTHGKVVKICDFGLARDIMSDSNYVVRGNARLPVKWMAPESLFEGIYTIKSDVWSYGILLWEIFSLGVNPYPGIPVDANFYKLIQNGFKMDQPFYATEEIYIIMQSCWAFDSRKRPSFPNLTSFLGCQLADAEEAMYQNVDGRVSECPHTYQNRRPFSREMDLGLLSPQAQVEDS

[12] = target: Dual specificity mitogen-activated protein kinase kinase 2 (Homo sapiens) (UniProt P36507); conditions: Compound concentration 1000.0 nM
Chain of Dual specificity mitogen-activated protein kinase kinase 2 (Homo sapiens) (P36507 whole entry): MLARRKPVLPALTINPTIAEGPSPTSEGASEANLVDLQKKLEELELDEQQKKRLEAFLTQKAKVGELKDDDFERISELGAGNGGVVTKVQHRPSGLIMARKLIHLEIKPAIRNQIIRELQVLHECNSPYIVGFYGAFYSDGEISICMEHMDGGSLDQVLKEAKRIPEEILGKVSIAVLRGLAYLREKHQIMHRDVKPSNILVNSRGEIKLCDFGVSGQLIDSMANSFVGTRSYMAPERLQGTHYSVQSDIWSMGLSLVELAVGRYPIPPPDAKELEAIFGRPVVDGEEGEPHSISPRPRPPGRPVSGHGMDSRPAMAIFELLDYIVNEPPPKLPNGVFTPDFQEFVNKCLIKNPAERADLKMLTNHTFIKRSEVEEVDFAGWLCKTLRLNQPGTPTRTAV

[13] = target: Maternal embryonic leucine zipper kinase (Homo sapiens) (UniProt Q14680); conditions: Compound concentration 1000.0 nM
[14] = target: Macrophage-stimulating protein receptor (Homo sapiens) (UniProt Q04912); conditions: Compound concentration 1000.0 nM
[15] = target: Myosin light chain kinase, smooth muscle (Homo sapiens) (UniProt Q15746); conditions: Compound concentration 1000.0 nM
[16] = tested on: Phosphatidylinositol 4,5-bisphosphate 3-kinase catalytic subunit alpha isoform (Homo sapiens), P42336 [E545A]; conditions: Compound concentration 1000.0 nM
[17] = target: T2, cAMP-dependent protein kinase catalytic subunit PRKX (Homo sapiens) (UniProt P51817); conditions: Compound concentration 1000.0 nM
T2 sequence (whole entry): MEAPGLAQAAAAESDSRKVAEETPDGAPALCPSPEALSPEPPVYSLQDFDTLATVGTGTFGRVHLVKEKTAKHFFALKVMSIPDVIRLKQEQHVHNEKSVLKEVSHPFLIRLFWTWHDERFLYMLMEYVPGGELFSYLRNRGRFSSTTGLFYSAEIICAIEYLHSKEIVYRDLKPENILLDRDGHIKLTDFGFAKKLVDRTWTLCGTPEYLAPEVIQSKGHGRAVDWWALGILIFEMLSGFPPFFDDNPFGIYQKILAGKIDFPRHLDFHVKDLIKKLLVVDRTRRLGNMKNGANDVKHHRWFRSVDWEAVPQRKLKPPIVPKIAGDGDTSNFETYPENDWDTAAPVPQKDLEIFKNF

[18] = target: Serine/threonine-protein kinase SBK1 (Homo sapiens) (UniProt Q52WX2); conditions: Compound concentration 1000.0 nM
Chain of Serine/threonine-protein kinase SBK1 (Homo sapiens) (Q52WX2 whole entry): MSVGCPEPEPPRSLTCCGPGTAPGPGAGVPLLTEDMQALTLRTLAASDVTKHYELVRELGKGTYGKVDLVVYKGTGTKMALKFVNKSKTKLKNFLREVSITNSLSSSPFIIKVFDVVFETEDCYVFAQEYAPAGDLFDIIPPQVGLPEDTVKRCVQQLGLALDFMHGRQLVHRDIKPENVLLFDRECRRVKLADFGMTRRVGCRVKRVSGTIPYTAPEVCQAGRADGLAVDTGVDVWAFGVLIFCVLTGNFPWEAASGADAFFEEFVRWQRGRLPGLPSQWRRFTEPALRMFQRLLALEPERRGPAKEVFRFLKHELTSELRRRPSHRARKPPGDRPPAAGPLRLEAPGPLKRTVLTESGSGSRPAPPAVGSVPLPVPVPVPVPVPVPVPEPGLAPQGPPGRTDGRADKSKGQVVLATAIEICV

[19] = target: SRSF protein kinase 2 (Homo sapiens) (UniProt P78362); conditions: Compound concentration 1000.0 nM
[20] = target: Serine/threonine-protein kinase 32A (Homo sapiens) (UniProt Q8WU08); conditions: Compound concentration 1000.0 nM
Chain of Serine/threonine-protein kinase 32A (Homo sapiens) (Q8WU08 whole entry): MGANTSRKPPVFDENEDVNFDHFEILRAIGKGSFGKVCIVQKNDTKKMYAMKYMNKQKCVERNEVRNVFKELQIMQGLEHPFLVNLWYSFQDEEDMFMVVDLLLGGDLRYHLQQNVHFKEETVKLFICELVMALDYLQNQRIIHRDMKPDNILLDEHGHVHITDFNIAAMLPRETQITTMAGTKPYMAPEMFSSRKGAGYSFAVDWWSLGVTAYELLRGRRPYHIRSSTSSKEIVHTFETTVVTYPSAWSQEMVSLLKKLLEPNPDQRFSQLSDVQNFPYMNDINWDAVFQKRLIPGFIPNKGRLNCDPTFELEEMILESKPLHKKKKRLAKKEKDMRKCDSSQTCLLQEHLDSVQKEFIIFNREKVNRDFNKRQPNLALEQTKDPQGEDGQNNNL

[21] = target: T3, Tyrosine-protein kinase ZAP-70 (Homo sapiens) (UniProt P43403); conditions: Compound concentration 1000.0 nM
T3 sequence (whole entry): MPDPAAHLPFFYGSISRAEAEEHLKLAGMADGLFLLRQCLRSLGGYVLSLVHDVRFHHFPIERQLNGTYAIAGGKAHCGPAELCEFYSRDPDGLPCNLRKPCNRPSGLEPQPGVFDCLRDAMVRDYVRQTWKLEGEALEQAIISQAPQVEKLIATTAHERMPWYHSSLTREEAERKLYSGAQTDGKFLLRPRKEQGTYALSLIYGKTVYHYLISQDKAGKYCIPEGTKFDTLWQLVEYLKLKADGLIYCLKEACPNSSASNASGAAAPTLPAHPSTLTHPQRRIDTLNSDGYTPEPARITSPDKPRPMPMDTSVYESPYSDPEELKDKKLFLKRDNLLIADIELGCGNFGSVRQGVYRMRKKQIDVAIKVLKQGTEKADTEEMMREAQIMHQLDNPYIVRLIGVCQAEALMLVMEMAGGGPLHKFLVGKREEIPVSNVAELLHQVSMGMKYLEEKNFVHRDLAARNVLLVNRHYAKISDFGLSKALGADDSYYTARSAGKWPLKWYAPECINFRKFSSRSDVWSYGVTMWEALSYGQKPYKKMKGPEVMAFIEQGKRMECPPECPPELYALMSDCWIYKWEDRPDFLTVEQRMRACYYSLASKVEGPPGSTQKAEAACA

[22] = target: Histamine H1 receptor (Homo sapiens) (UniProt P35367); conditions: Compound concentration 10.0 uM
Chain of Histamine H1 receptor (Homo sapiens) (P35367 whole entry): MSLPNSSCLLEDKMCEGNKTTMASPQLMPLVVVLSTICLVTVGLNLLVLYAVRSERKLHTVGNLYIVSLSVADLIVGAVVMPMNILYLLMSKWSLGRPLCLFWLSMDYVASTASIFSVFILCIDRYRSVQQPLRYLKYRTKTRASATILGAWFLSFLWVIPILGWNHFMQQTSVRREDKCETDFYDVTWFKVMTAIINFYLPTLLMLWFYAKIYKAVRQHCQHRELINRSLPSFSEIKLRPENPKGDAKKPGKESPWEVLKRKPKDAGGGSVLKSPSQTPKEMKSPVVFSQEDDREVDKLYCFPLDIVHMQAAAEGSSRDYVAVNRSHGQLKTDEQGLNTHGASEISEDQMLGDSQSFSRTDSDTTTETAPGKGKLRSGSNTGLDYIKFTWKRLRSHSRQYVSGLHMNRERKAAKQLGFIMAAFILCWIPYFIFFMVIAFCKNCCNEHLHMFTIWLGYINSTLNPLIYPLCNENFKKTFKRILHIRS

CN(C)C(=O)Cn1cc(-c2nc(C3(c4ccc(-c5cnc(N)nc5)cc4)CC3)no2)cn1 [BI 0153]
inactive: residual activity [1] 100% | residual activity [2] 100% | residual activity [3] 81% | residual activity [4] 100% | residual activity [5] 80% | residual activity [6] 96% | residual activity [7] 100% | residual activity [8] 99% | residual activity [9] 100% | residual activity [10] 100% | residual activity [11] 90% | residual activity [12] 80% | residual activity [13] 92% | residual activity [14] 95% | residual activity [15] 72% | residual activity [16] 99% | residual activity [17] 100% | residual activity [18] 83% | residual activity [19] 91% | residual activity [20] 97% | residual activity [21] 94% | inhibition [22] 8.78%

CN(C)C(=O)Cn1cc(-c2nc([C@@](C)(c3ccc(-c4cnc(N)nc4)cc3)C3CC3)no2)cn1 [BI 665915]
inactive: residual activity [1] 80% | residual activity [2] 98% | residual activity [3] 81% | residual activity [4] 94% | residual activity [5] 94% | residual activity [6] 91% | residual activity [7] 85% | residual activity [8] 100% | residual activity [9] 100% | residual activity [10] 94% | residual activity [11] 97% | residual activity [12] 86% | residual activity [13] 87% | residual activity [14] 79% | residual activity [15] 84% | residual activity [16] 75% | residual activity [17] 100% | residual activity [18] 87% | residual activity [19] 100% | residual activity [20] 83% | residual activity [21] 100% | inhibition [22] 7.66%
